Test results published in PMC6054458 (Molecular cancer therapeutics, 2017).

Molecular target: MDM2 (Homo sapiens, UniProt Q00987)
Assay: ITC
Type: binding

Sequence of MDM2 (Q00987 428-491 limits assumed): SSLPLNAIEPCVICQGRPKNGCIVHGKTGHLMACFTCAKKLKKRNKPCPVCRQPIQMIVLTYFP

- Kd: 370 nM
Structure (SMILES): O=C(CCl)Nc1cc(O)c2c(c1)C(=O)c1cccc(O)c1C2=O [AQ-101]
